Reference: patent US8987285B2, “Pharmaceutical compositions, dosage forms and new forms of the compound of formula (I), and methods of use thereof” (Portola Pharmaceuticals, Inc., priority 2010, dated 2015)
Like-named read-outs stand apart in the source and are kept apart here.

What was measured:
[1] = Pharmacokinetic Study 1: FMI tablets fasted/fed versus reference IR capsule, crossover, healthy adult volunteers; type: in vivo, human; details: for Geometric-mean ratio (Fed/Fasted) of AUCinf / Geometric-mean ratio (Fed/Fasted) of AUClast / Geometric-mean ratio (Fed/Fasted) of Cmax: high fat breakfast versus fasted
Procedure: This was an open label, randomized, four-period, incomplete crossover, single center study in healthy adult volunteers. There were 4 treatments in the study: 3 doses of the FMI (given fasting or fed following a high-fat breakfast) and one reference IR capsule (given fed after a typical breakfast). The term “FMI” refers to the dosage form of Example 7 (30 mg FMI) or Example 8 (75 mg FMI).
Each subject was randomized to 1 of 18 treatment sequences, each with 4 treatment periods (Table 27). The first treatment period consisted of 1 of the 3 doses of FMI given fed, and treatment periods 2 to 4 consisted of 1 dose of IR capsule (fed) and 2 of the 3 doses of the FMI given fasted. […] Each subject therefore had 2 fasting treatments with the FMI formulation, 1 fed treatment with the FMI formulation and a reference treatment (IR capsule). Seventy two subjects enrolled and were dosed in the study with 70 completers.
The study consisted of a 28-day screening period, four baseline periods (one before each treatment period), four treatment periods with a wash out period of a minimum of 5 days, followed by a study completion evaluation approximately 72 hours after the last drug administration. Subjects who met the eligibility criteria at screening were admitted to baseline evaluations. All baseline safety evaluation results were available prior to dosing.
For fasted administration, elinogrel was administered in the morning, following an overnight fast of at least 10 hours. Subjects continued to fast until 4 hours post-dose. For fed administration of FMI tablets, elinogrel was administered in the morning, within 30 minutes of a high fat breakfast (approximately 1000 calories). Subjects continued to fast until 4 hours post-dose. For fed administration of the reference (IR capsule), it was administered in the morning, within 30 minutes of a typical breakfast (approximately 500 calories). Subjects continued to fast until 4 hours post-dose.
Subjects were admitted to the study site approximately 12 hours prior to dosing in each period for baseline evaluations. Following a single dose of elinogrel, PK assessments were taken up to 48 hours post dose and safety assessments were made for up to 72 hours.
Subjects were domiciled for 24 hours post dosing for PK sample collection, at which time they were discharged from the study site. Subjects returned on the following 2 mornings for 48 hour PK and 72 hour safety samples. Following the 72 hour safety assessments of treatment period 4 (or in the case of subject discontinuation) subjects underwent study completion evaluations and were discharged from the study. […].
This was a three-period, four-treatment crossover study design with an add-on food effect period (Period 1).
Treatment 1 (T1)=elinogrel 30 mg FMI dose fasting
Treatment 2 (T2)=elinogrel 75 mg FMI dose fasting
Treatment 3 (T3)=elinogrel 150 mg FMI dose fasting
Reference (R)=elinogrel 150 mg IR capsule dose fed (typical breakfast); Example 6 (Reference)
Fed treatment 1 (F1)=elinogrel 30 mg FMI dose fed (high fat breakfast)
Fed treatment 2 (F2)=elinogrel 75 mg FMI dose fed (high fat breakfast)
Fed treatment 3 (F3)=elinogrel 150 mg FMI dose fed (high fat breakfast)
Subjects will received the following treatments in a randomized order: • Treatment (T1, F1) with IR (IR=immediate release) tablet of Example 7 containing pH-modifying alkalizing agent, 30 mg in fasted and fed state. • Treatment (T2, F2) with IR (IR=immediate release) tablet of Example 8 containing pH-modifying alkalizing agent, 75 mg in fasted and fed state • Treatment (R) with 2×IR (IR=immediate release) capsule of Example 6 (Reference): 2×75 mg (150 mg) in fed state. • Treatment (T3, F3) with 2×IR (IR=immediate release) tablet of Example 8 containing pH-modifying alkalizing agent, 2×75 mg (150 mg) in fasted and fed state.
To evaluate the food effect, the geometric mean ratio for PK parameters of the fed versus fasted for each dose level and its 90% CI was estimated as shown in Table 29 below.

[2] = Supersaturation stabilization experiment with PVP K90 (CheqSol); type: physicochemical
Source text: Typically the higher the super saturation, the faster and the more extensive is the precipitation which occurs. On the other hand, higher bioavailability may be achieved by using excipients which interact with the drug in the super-saturated state. In this super-saturated state, precipitation is inhibited and/or delayed, thus leading to higher luminal drug concentrations in vivo of the dissolved drug. […] The present invention thus provides a pharmaceutical composition which achieves higher bioavailability of the drug substance.

[3] = pKa, log P and log D of the compound of formula (II); type: physicochemical
Source text: The pKa of the compound of formula (II) is about 3.3, with a log P of about 2.5 and log D (pH7.4) of about −1.6.

[4] = Wettability: contact angle measurement with water on pressed powder; type: physicochemical; details: water, in ° (unit assumed)
Procedure: Contact angel instrument: EasyDrop DSA15E (Krüss, Hamburg, Germany)
Syringe: NE44, diameter of needle 0.5 mm (Krüss, Hamburg, Germany)
The powder was pressed (approx 50 mg powder, 3 tons, 2 min) in tablets and analyzed by contact angle measurement. The angel between the solid and the liquid is measured after 0 and up to 60 seconds using water.
All determinations used the above method and the limit for the standards measurements are well within the given limits.

SMILES: CNc1cc2[nH]c(=O)n(-c3ccc(NC(=O)NS(=O)(=O)c4ccc(Cl)s4)cc3)c(=O)c2cc1F [compound of formula (II), elinogrel]
- decrease of AUC by high fat meal ([1]; 30 mg dose): 44-52%
- decrease of Cmax by high fat meal ([1]; 30 mg dose): 58%
- decrease of AUC by high fat meal ([1]; 75 mg dose): 14-18%
- decrease of Cmax by high fat meal ([1]; 75 mg dose): 36%
- decrease of AUC by high fat meal ([1]; 150 mg dose): 29-30%
- decrease of Cmax by high fat meal ([1]; 150 mg dose): 48%
- Geometric-mean ratio (Fed/Fasted) of AUCinf ([1]; FMI 30 mg): 0.48
- Geometric-mean ratio (Fed/Fasted) of AUClast ([1]; FMI 30 mg): 0.56
- Geometric-mean ratio (Fed/Fasted) of Cmax ([1]; FMI 30 mg): 0.42
- Geometric-mean ratio (Fed/Fasted) of AUCinf ([1]; FMI 75 mg): 0.86
- Geometric-mean ratio (Fed/Fasted) of AUClast ([1]; FMI 75 mg): 0.82
- Geometric-mean ratio (Fed/Fasted) of Cmax ([1]; FMI 75 mg): 0.64
- Geometric-mean ratio (Fed/Fasted) of AUCinf ([1]; FMI 150 mg): 0.71
- Geometric-mean ratio (Fed/Fasted) of AUClast ([1]; FMI 150 mg): 0.70
- Geometric-mean ratio (Fed/Fasted) of Cmax ([1]; FMI 150 mg): 0.52
- stable super-saturation ([2]; PVP K90 to drug 1:1 by weight, pH>6.0, for 66 hours): 17-86 fold
- concentration in solution with PVP ([2]; after 67 h with PVP, pH 7.2): 860 µg/mL
- solubility ([2]; aqueous buffer, pH 6.0, read-out: solubility measured by Sirius CheqSol): 9.9 µg/mL
- solubility at 66 h ([2]; pH 7.2, aqueous buffer): ~170 µg/mL
- LogP [3]: ~2.5
- pKa ([3]; first pKa): about 3.3
- logD ([3]; pH 7.4, pH7.4): ~-1.6
- pKa ([3]; read-out: second pKa): 10.3
- Contact angle ([4]; 0 sec): 65.9
- Contact angle ([4]; 30 sec): 60.8
- Contact angle ([4]; 60 sec): 60.1
